Molecules are shown by their SMILES. Values after ≈ are worked out from the molar mass of the structure shown.

This note sets out measurements from ChEMBL document CHEMBL1133984, “Synthesis, topoisomerase I inhibition and antitumor cytotoxicity of 2,2':6',2"-, 2,2':6',3"- and 2,2':6',4"-terpyridine derivatives” (2001).

Common to all, as to assay type: functional
What all share (conditions): Homo sapiens

The test system of one experiment is RPTEC. In words: Antitumor cytotoxic activity against RPTEC cell line was determined.
The next experiment relates to A498. In words: Antitumor cytotoxic activity against A-498 cell line was determined.
Another experiment has as its system HT-29. In words: Antitumor cytotoxic activity against HT-29 cell line was determined.
For the next experiment, the system named is SK-MEL-2. Nature of the experiment: Antitumor cytotoxic activity against SK-MEL-2 cell line was determined.
The next experiment deals with HCT-15. Nature of the experiment: Antitumor cytotoxic activity against HCT-15 cell line was determined.
The subject of a further experiment is SK-OV-3. Nature of the experiment: Antitumor cytotoxic activity against SK-OV-3 cell line was determined.
The subject of a further experiment is A549. Nature of the experiment: Antitumor cytotoxic activity against A-549 cell line was determined.
The subject of another experiment is PC-3. In words: Antitumor cytotoxic activity against PC-3 cell line was determined.

Turning to `c1ccc(-c2cc(-c3cccs3)cc(-c3cccnc3)n2)nc1`, the concentration for 50% growth inhibition (GI50) – broadly, the concentration at which growth is held to half of that of the control – with RPTEC came to 56 ng/mL (≈ 0.178 µM); with A498 it was 2.9 ng/mL (≈ 0.00919 µM); in the experiment with HT-29, 190 ng/mL (≈ 0.602 µM); with SK-MEL-2, 77700 ng/mL (≈ 246 µM); in the experiment with HCT-15, 56100 ng/mL (≈ 178 µM); with SK-OV-3 it was 52000 ng/mL (≈ 165 µM). Also, the results for the concentration for 50% growth inhibition (GI50) in the experiment on A549 and in the experiment on PC-3 were 78900 ng/mL (≈ 250 µM) and 31 ng/mL (≈ 0.0983 µM), respectively.
On to `c1ccc(-c2cc(-c3ccsc3)cc(-c3ccccn3)n2)nc1`, for which the 50% growth inhibitory concentration (GI50) with RPTEC came out at 4.7 ng/mL (≈ 0.0149 µM); in the experiment on A498, 0.097 ng/mL (≈ 0.000308 µM); in the experiment on HT-29 it was 2.7 ng/mL (≈ 0.00856 µM); in the experiment on SK-MEL-2, 890 ng/mL (≈ 2.82 µM); with HCT-15 it was 290 ng/mL (≈ 0.919 µM); in the experiment on SK-OV-3, 100 ng/mL (≈ 0.317 µM). For the same compound, the GI50 in the experiment with A549 was 620 ng/mL (≈ 1.97 µM); with PC-3, 1.7 ng/mL (≈ 0.00539 µM).
With `c1ccc(-c2cc(-c3cccnc3)nc(-c3ccccn3)c2)cc1`, the GI50 was found to be 360 ng/mL (≈ 1.16 µM) in the experiment with RPTEC; 74 ng/mL (≈ 0.239 µM) with A498; 330 ng/mL (≈ 1.07 µM) in the experiment on HT-29; 89200 ng/mL (≈ 288 µM) in the experiment on SK-MEL-2; 40900 ng/mL (≈ 132 µM) in the experiment on HCT-15; 49600 ng/mL (≈ 160 µM) in the experiment with SK-OV-3. In addition, the concentration for 50% growth inhibition (GI50) in the experiment on A549 was determined as 44800 ng/mL (≈ 145 µM); in the experiment with PC-3, 280 ng/mL (≈ 0.905 µM).
Regarding `c1ccc(-c2cc(-c3cccs3)cc(-c3ccncc3)n2)nc1`, the 50% growth inhibitory concentration (GI50) stood at 650 ng/mL (≈ 2.06 µM) in the experiment with RPTEC; 840 ng/mL (≈ 2.66 µM) in the experiment on A498; 520 ng/mL (≈ 1.65 µM) with HT-29; 35200 ng/mL (≈ 112 µM) with SK-MEL-2; 15100 ng/mL (≈ 47.9 µM) in the experiment on HCT-15; 48300 ng/mL (≈ 153 µM) with SK-OV-3. Moreover, the GI50 in the experiment on A549 was 36200 ng/mL (≈ 115 µM); in the experiment on PC-3, 220 ng/mL (≈ 0.698 µM).
As to `c1ccc(-c2cc(-c3ccoc3)cc(-c3ccccn3)n2)nc1`, the GI50 with RPTEC came out at 5.8 ng/mL (≈ 0.0194 µM); in the experiment with A498, 0.032 ng/mL (≈ 0.000107 µM); with HT-29 it was 2.6 ng/mL (≈ 0.00869 µM); in the experiment on SK-MEL-2, 330 ng/mL (≈ 1.1 µM); with HCT-15, 60 ng/mL (≈ 0.2 µM); in the experiment on SK-OV-3, 600 ng/mL (≈ 2 µM). In addition, the GI50 in the experiment with A549 amounted to 80 ng/mL (≈ 0.267 µM); in the experiment with PC-3, 4.4 ng/mL (≈ 0.0147 µM).
On to `c1ccc(-c2cc(-c3ccsc3)cc(-c3cccnc3)n2)nc1`, for which the 50% growth inhibitory concentration (GI50) in the experiment with RPTEC is 310 ng/mL (≈ 0.983 µM); in the experiment with A498 it was 640 ng/mL (≈ 2.03 µM); in the experiment on HT-29, 360 ng/mL (≈ 1.14 µM); in the experiment with SK-MEL-2, over 100000 ng/mL; in the experiment on HCT-15, over 100000 ng/mL; with SK-OV-3 it was over 100000 ng/mL. In addition, the values for the GI50 in the experiment with A549 and in the experiment on PC-3 were over 100000 ng/mL and 54 ng/mL (≈ 0.171 µM), respectively.
`c1ccc(-c2cc(-c3ccco3)cc(-c3ccccn3)n2)nc1`: the concentration for 50% growth inhibition (GI50) turned out to be 4.1 ng/mL (≈ 0.0137 µM) in the experiment with RPTEC; 0.064 ng/mL (≈ 0.000214 µM) in the experiment on A498; 2.4 ng/mL (≈ 0.00802 µM) with HT-29; 9900 ng/mL (≈ 33.1 µM) with SK-MEL-2; 100 ng/mL (≈ 0.334 µM) in the experiment with HCT-15; 130 ng/mL (≈ 0.434 µM) in the experiment on SK-OV-3. The GI50 in the experiment on A549 is 220 ng/mL (≈ 0.735 µM); in the experiment on PC-3, 2.5 ng/mL (≈ 0.00835 µM).
Regarding `COc1cccc2c1C(=O)c1c(O)c3c(c(O)c1C2=O)C[C@@](O)(C(=O)CO)C[C@@H]3O[C@H]1C[C@H](N)[C@H](O)[C@H](C)O1` [DOXORUBICIN], the GI50 in the experiment with RPTEC was 72 ng/mL (≈ 0.132 µM); in the experiment on A498 it was 6.4 ng/mL (≈ 0.0118 µM); in the experiment with HT-29, 4.6 ng/mL (≈ 0.00846 µM); with SK-MEL-2, 59 ng/mL (≈ 0.109 µM); in the experiment on HCT-15, 71 ng/mL (≈ 0.131 µM); with SK-OV-3, 73 ng/mL (≈ 0.134 µM). For the same compound, the concentration for 50% growth inhibition (GI50) with A549 came out at 92 ng/mL (≈ 0.169 µM); with PC-3 it was 29 ng/mL (≈ 0.0534 µM).
Take `c1ccc(-c2cccc(-c3ccccn3)n2)nc1` [TERPYRIDINE]: the GI50 in the experiment with RPTEC turned out to be 14 ng/mL (≈ 0.06 µM); with A498, 0.097 ng/mL (≈ 0.000416 µM); in the experiment on HT-29, 2.6 ng/mL (≈ 0.0111 µM); in the experiment on SK-MEL-2, 100 ng/mL (≈ 0.429 µM); in the experiment on HCT-15, 71 ng/mL (≈ 0.304 µM); in the experiment on SK-OV-3 it was 72 ng/mL (≈ 0.309 µM). Moreover, the results for the GI50 in the experiment on A549 and in the experiment with PC-3 were 90 ng/mL (≈ 0.386 µM) and 0.73 ng/mL (≈ 0.00313 µM), respectively.
On to `c1ccc(-c2cc(-c3ccccn3)nc(-c3ccccn3)c2)cc1`, for which the GI50 is 27 ng/mL (≈ 0.0873 µM) with RPTEC; 2.5 ng/mL (≈ 0.00808 µM) in the experiment with A498; 1.4 ng/mL (≈ 0.00453 µM) in the experiment on HT-29; 7500 ng/mL (≈ 24.2 µM) in the experiment on SK-MEL-2; 370 ng/mL (≈ 1.2 µM) in the experiment with HCT-15; 120 ng/mL (≈ 0.388 µM) with SK-OV-3. The figures for the GI50 in the experiment on A549 and in the experiment with PC-3 were 560 ng/mL (≈ 1.81 µM) and 17 ng/mL (≈ 0.055 µM), respectively.
